# From patent US9302999B2, “Substituted triazoles as herbicides” (E. I. DU PONT DE NEMOURS AND COMPANY, priority 2012, dated 2016)
# Read-outs that look alike come from different tables or passages of the source.
# How the values were obtained:
# Format in all cases: in vivo
# [1] = tested on: large crabgrass (Digitaria sanguinalis); experiment: Test C pre-/postemergence: large crabgrass; details: Postemergence
# Summary of the method: (§1)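 Visual injury scored 0–100 (100 = complete control) against untreated controls after 13–15 greenhouse days. Surfactant-containing solvent formulations applied either to soil after sowing (loam/sand) or over 1- to 4-leaf plants, 2–18 cm tall.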
# [2] = tested on: johnsongrass (Sorghum halepense); experiment: Test C pre-/postemergence: johnsongrass; details: Postemergence
# Description: (§2) Seeds of plant species selected from blackgrass (Alopecurus myosuroides), bromegrass, downy (downy bromegrass, Bromus tectorum), foxtail, green (green foxtail, Setaria viridis), ryegrass, Italian (Italian ryegrass, Lolium multiflorum), winter wheat (Triticum aestivum), wild oat (Avena fatua), galium (catchweed bedstraw, Galium aparine), bermudagrass (Cynodon dactylon), surinam grass (Brachiaria decumbens), cocklebur (common cocklebur, Xanthium strumarium), corn (Zea mays), large crabgrass (Digitaria sanguinalis), woolly cupgrass (Eriochloa villosa), foxtail, giant (giant foxtail, Setaria faberii), goosegrass (Eleusine indica), johnsongrass (Sorghum halepense), kochia (Kochia scoparia), lambsquarters (Chenopodium album), morningglory (Ipomoea coccinea), nightshade (eastern black nightshade, Solanum ptycanthum), nutsedge, yellow (yellow nutsedge, Cyperus esculentus), pigweed (Amaranthus retroflexus), ragweed (common ragweed, Ambrosia elation), soybean (Glycine max), common (oilseed) sunflower (Helianthus annuus), Russian thistle (Salsola kali) and velvetleaf (Abutilon theophrasti) were planted into a blend of loam soil and sand and treated preemergence with test chemicals formulated in a non-phytotoxic solvent mixture which included a surfactant.
# (§3) At the same time, plants selected from these crop and weed species and also barley (winter barley, Hordeum vulgare), canarygrass (Phalaris minor), chickweed (common chickweed, Stellaria media) windgrass (Apera spica-venti) and deadnettle (henbit deadnettle, Lamium amplexicaule) were planted in pots containing Redi-Earth® planting medium (Scotts Company, 14111 Scottslawn Road, Marysville, Ohio 43041) comprising spaghnum peat moss, vermiculite, wetting agent and starter nutrients and treated with postemergence applications of test chemicals formulated in the same manner. Plants ranged in height from 2 to 18 cm (1- to 4-leaf stage) for postemergence treatments.
# (§4) Treated plants and controls were maintained in a greenhouse for 13 to 15 days, after which time all species were compared to controls and visually evaluated. Plant response ratings, summarized in Table C, are based on a scale of 0 to 100 where 0 is no effect and 100 is complete control. A dash (-) response means no test result.
# [3] = tested on: ragweed (common ragweed, Ambrosia elation); experiment: Test C pre-/postemergence: ragweed; details: Postemergence
# Summary of the method: as §1
# kochia (Kochia scoparia) = experiment: Test C pre-/postemergence: kochia; details: Postemergence
# Description: as §2, §3, §4
# [4] = tested on: galium (catchweed bedstraw, Galium aparine); experiment: Test C pre-/postemergence: galium
# Description: as §2, §3, §4
# corn (Zea mays) = experiment: Test C pre-/postemergence: corn; details: Postemergence
# Summary of the method: as §1
# [5] = tested on: velvetleaf (Abutilon theophrasti); experiment: Test C pre-/postemergence: velvetleaf; details: Postemergence
# Description: as §2, §3, §4
# [6] = tested on: velvetleaf (Abutilon theophrasti); experiment: Test A pre-/postemergence: velvetleaf; details: Abutilon theophrasti, 240 h; for pest or weed control at 125 g/ha: 125 g ai/ha; for pest or weed control at 500 g/ha: 500 g ai/ha
# Summary of the method: (§5)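 Injury was scored visually on a 0 (no effect) to 100 (complete control) scale versus untreated controls roughly ten days after treatment in the greenhouse. Compounds, formulated in surfactant-containing non-phytotoxic solvent, went on as soil-directed preemergence spray or postemergence to one- to two-leaf plants 2–10 cm tall.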
# [7] = tested on: blackgrass (Alopecurus myosuroides); experiment: Test C pre-/postemergence: blackgrass
# Summary of the method: as §1
# wild oat (Avena fatua) = experiment: Test C pre-/postemergence: wild oat
# Description: as §2, §3, §4
# [8] = tested on: pigweed (Amaranthus retroflexus); experiment: Test C pre-/postemergence: pigweed; details: Postemergence
# Description: as §2, §3, §4
# [9] = tested on: morningglory (Ipomoea spp.); experiment: Test A pre-/postemergence: morningglory; details: Ipomoea, 240 h; for pest or weed control at 500 g/ha: 500 g ai/ha
# Summary of the method: as §5
# [10] = 31 g ai/ha, scale 0 to 100 (0 no effect, 100 complete control)
# [11] = 62 g ai/ha, scale 0 to 100 (0 no effect, 100 complete control)
# [12] = 125 g ai/ha, scale 0 to 100, 0 no effect, 100 complete control
# [13] = Postemergence, 31 g ai/ha, scale 0 to 100 (0 no effect, 100 complete control)
# [14] = Postemergence, 62 g ai/ha, scale 0 to 100 (0 no effect, 100 complete control)
# [15] = Postemergence, 125 g ai/ha, scale 0 to 100, 0 no effect, 100 complete control
# [16] = Postemergence, 250 g ai/ha, scale 0 to 100
# [17] = Preemergence, 31 g ai/ha, scale of 0 to 100, 0 is no effect, 100 is complete control
# [18] = Preemergence, 62 g ai/ha, scale of 0 to 100, 0 is no effect, 100 is complete control
# [19] = Preemergence, 125 g ai/ha, scale 0 to 100, 0 no effect, 100 complete control
# [20] = Preemergence, 250 g ai/ha, scale 0 to 100, 0 no effect, 100 complete control
structure (smiles),measurement,setting,value
"Cc1nn(-c2ccc(F)cc2)nc1Cc1ccnc(C(F)(F)F)c1 [Compound 16, 4-[[2-(4-fluorophenyl)-5-methyl-2H-1,2,3-triazol-4-yl]methyl]-2-(trifluoromethyl)pyridine]","Plant response rating, Crabgrass, Large",[1]; [10],5
same,"Plant response rating, Crabgrass, Large",[1]; [11],5
same,"Plant response rating, Crabgrass, Large",[1]; [12],20
same,"Plant response rating, Crabgrass, Large","[1]; 250 g ai/ha, scale 0 to 100",60
same,"Plant response rating, Johnsongrass",[2]; [10],0
same,"Plant response rating, Johnsongrass",[2]; [11],0
same,"Plant response rating, Johnsongrass",[2]; [12],45
same,"Plant response rating, Johnsongrass","[2]; 250 g ai/ha, scale 0 to 100",45
same,"Plant response rating, Ragweed",[3]; [10],5
same,"Plant response rating, Ragweed",[3]; [11],25
same,"Plant response rating, Ragweed",[3]; [12],75
same,"Plant response rating, Ragweed","[3]; 250 g ai/ha, scale 0 to 100",75
same,"Plant response rating, Kochia",kochia (Kochia scoparia); [10],95
same,"Plant response rating, Kochia",kochia (Kochia scoparia); [11],98
same,"Plant response rating, Kochia",kochia (Kochia scoparia); [12],98
same,"Plant response rating, Kochia","kochia (Kochia scoparia); 250 g ai/ha, scale 0 to 100",98
same,"Plant response rating, Galium",[4]; [13],60
same,"Plant response rating, Galium",[4]; [14],65
same,"Plant response rating, Galium",[4]; [15],80
same,"Plant response rating, Galium",[4]; [16],90
same,"Plant response rating, Galium",[4]; [17],100
same,"Plant response rating, Galium",[4]; [18],100
same,"Plant response rating, Galium",[4]; [19],100
same,"Plant response rating, Galium",[4]; [20],100
same,"Plant response rating, Corn",corn (Zea mays); [10],5
same,"Plant response rating, Corn",corn (Zea mays); [11],15
same,"Plant response rating, Corn",corn (Zea mays); [12],15
same,"Plant response rating, Corn","corn (Zea mays); 250 g ai/ha, scale 0 to 100",15
same,"Plant response rating, Velvetleaf",[5]; [10],10
same,"Plant response rating, Velvetleaf",[5]; [11],65
same,"Plant response rating, Velvetleaf",[5]; [12],65
same,"Plant response rating, Velvetleaf","[5]; 250 g ai/ha, scale 0 to 100",85
same,pest or weed control at 125 g/ha,"[6]; post-emergence, Postemergence, 0 to 100 scale, 0 is no effect, 100 is complete control, read-out: Velvetleaf plant response rating",100%
same,pest or weed control at 500 g/ha,"[6]; post-emergence, Postemergence, visual rating on 0 to 100 scale (0 no effect, 100 complete control), approximately ten days, read-out: Velvetleaf plant response rating",100%
same,pest or weed control at 125 g/ha,"[6]; pre-emergence, Preemergence, 0 to 100 scale (0 no effect, 100 complete control), read-out: Plant response rating, Velvetleaf",30%
same,pest or weed control at 500 g/ha,"[6]; pre-emergence, Preemergence, 0 to 100 scale, 0 is no effect, 100 is complete control, read-out: Plant response rating, Velvetleaf",80%
same,"Plant response rating, Blackgrass",[7]; [13],10
same,"Plant response rating, Blackgrass",[7]; [14],25
same,"Plant response rating, Blackgrass",[7]; [15],40
same,"Plant response rating, Blackgrass",[7]; [16],80
same,"Plant response rating, Blackgrass",[7]; [17],90
same,"Plant response rating, Blackgrass","[7]; Preemergence, 62 g ai/ha, scale 0 to 100, 0 no effect, 100 complete control",100
same,"Plant response rating, Blackgrass",[7]; [19],100
same,"Plant response rating, Blackgrass",[7]; [20],100
same,"Plant response rating, Oat, Wild",wild oat (Avena fatua); [13],5
same,"Plant response rating, Oat, Wild",wild oat (Avena fatua); [14],10
same,"Plant response rating, Oat, Wild",wild oat (Avena fatua); [15],20
same,"Plant response rating, Oat, Wild",wild oat (Avena fatua); [16],80
same,"Plant response rating, Oat, Wild",wild oat (Avena fatua); [17],98
same,"Plant response rating, Oat, Wild",wild oat (Avena fatua); [18],100
same,"Plant response rating, Oat, Wild",wild oat (Avena fatua); [19],100
same,"Plant response rating, Oat, Wild",wild oat (Avena fatua); [20],100
same,"Plant response rating, Pigweed",[8]; [10],75
same,"Plant response rating, Pigweed",[8]; [11],95
same,"Plant response rating, Pigweed",[8]; [12],100
same,"Plant response rating, Pigweed","[8]; 250 g ai/ha, scale 0 to 100",100
same,pest or weed control at 125 g/ha,"[9]; post-emergence, Postemergence, 125 g ai/ha, 0 to 100 scale, 0 is no effect, 100 is complete control, read-out: Morningglory plant response rating",80%
same,pest or weed control at 500 g/ha,"[9]; post-emergence, Postemergence, visual rating on 0 to 100 scale (0 no effect, 100 complete control), approximately ten days, read-out: Morningglory plant response rating",100%
same,pest or weed control at 500 g/ha,"[9]; pre-emergence, Preemergence, 0 to 100 scale, 0 is no effect, 100 is complete control, read-out: Plant response rating, Morningglory",80%
